Laboratory results taken from patent US12507703B2, “Methods, devices and compositions for preserving human milk” (The Trustees of Princeton University, priority 2023, dated 2025).
Several values for one entry are separate records, joined by “and”; a condition that tells them apart may be missing. Equal values may be shown once.

system: lipase; assay: Lipase/lipolysis assay (EnzChek Lipase Substrate, quenched BODIPY-fatty acid conjugate) on stored human milk; settings: not given; also: test concentration or dose not given here

In order of rising “Lipase (RFU)” value:
1. O=C(O)C(O)Cc1c[nH]c2ccccc12 (stereo not drawn) [Indolelactic acid]  641.0066 RFU
2. O=C([O-])[O-].[Ca+2] [Calcium carbonate]  646.797 RFU
3. COc1c(O)cc2oc(-c3ccc(O)c(O)c3)cc(=O)c2c1O [Nepetin]  666.0077 RFU
4. Chondroitin (sulfate)  714.418 RFU
5. N[C@@H](Cc1ccc(O)c(I)c1)C(=O)O [H-Tyr(3-I)-OH]  847.3153 RFU
6. COc1cc(O)c2c(=O)cc(-c3ccc(O)c(O)c3)oc2c1 [Hydroxygenkwanin]  874.9866 RFU
7. Curdlan  876.416 RFU
8. C[C@H](CCC(=O)O)[C@H]1CC[C@H]2[C@@H]3[C@@H](O)C[C@@H]4C[C@H](O)CC[C@]4(C)[C@H]3C[C@H](O)[C@]12C [Ursocholic acid]  879.9608 RFU
9. CS(=O)(=O)CC[C@H](N)C(=O)O [L-Methionine Sulfone]  897.1863 RFU
10. CC1(C)[C@@H](O[C@H]2O[C@H](C(=O)O)[C@@H](O)[C@H](O)[C@H]2O[C@@H]2O[C@H](C(=O)O)[C@@H](O)[C@H](O)[C@H]2O)CC[C@]2(C)[C@H]3C(=O)C=C4[C@@H]5C[C@@](C)(C(=O)O)CC[C@]5(C)CC[C@@]4(C)[C@]3(C)CC[C@@H]12 [Ammonium glycyrrhizinate]  918.7261 RFU
11. COC1=CC(=O)C=C(OC)C1=O [2,6-Dimethoxy-1,4-benzoquinone]  934.6959 RFU
12. CCCCCCCC/C=C\CCCCCCCC(=O)O[C@H]1CC[C@@]2(C)C(=CC[C@H]3[C@@H]4CC[C@H]([C@H](C)CCCC(C)C)[C@@]4(C)CC[C@@H]32)C1 [Cholesteryl oleate]  988.5488 RFU
13. CC[C@H](N)C(=O)O [H-Abu-OH]  993.6587 RFU
14. C[C@H](CCC(=O)O)[C@H]1CC[C@H]2[C@@H]3[C@H](O)C[C@H]4C[C@H](O)CC[C@]4(C)[C@H]3C[C@H](O)[C@]12C [Allocholic acid]  1000.774 RFU
15. C/C(C=O)=C\CC[C@@H](C)[C@H]1CC[C@@]2(C)C3=CC[C@H]4C(C)(C)C(=O)CC[C@]4(C)C3=CC[C@]12C [Ganoderal A]  1025.687 RFU
16. OC[C@H]1NC[C@H](O)[C@@H](O)[C@@H]1O [Compound 1-Deoxynojirimycin]  1029.468 RFU
17. COC(=O)C1=CO[C@@H](O[C@@H]2O[C@H](CO)[C@@H](O)[C@H](O)[C@H]2O)[C@H]2[C@@H]1C(=O)C[C@@H]2C [Verbenalin]  1051.385 RFU
18. CC1(C)CC[C@]2(C(=O)O)CC[C@]3(C)C(=CC[C@@H]4[C@@]5(C)CC[C@@H](O)C(C)(C)[C@@H]5CC[C@]43C)[C@@H]2C1 [3-Epioleanolic acid]  1064.911 RFU
19. CN1[C@@H]2CC[C@H]1C[C@@H](OC(=O)C(CO)c1ccccc1)C2 (stereo partly drawn) [Atropine (sulfate monohydrate)]  1099.713 RFU
20. O=S(O)(O)=S [Thiosulfate]  1139.701 RFU
21. C[N+](C)(C)CCCC[C@H](N)C(=O)O [Nε,Nε,Nε-Trimethyllysine (chloride)]  1143.924 RFU
22. CC(C)=CCC[C@](C)(O)[C@H]1CC[C@]2(C)[C@@H]1[C@H](O)C[C@@H]1[C@@]3(C)CC[C@H](O)C(C)(C)[C@@H]3[C@@H](O[C@@H]3O[C@H](CO)[C@@H](O)[C@H](O)[C@H]3O[C@@H]3O[C@@H](C)[C@H](O)[C@@H](O)[C@H]3O)C[C@]12C [Ginsenoside Rg2]  1144.609 RFU

In the case of `C=CCc1ccc(OC)cc1` [Estragole], the “Lipase (RFU)” value is reported as 655.6447 RFU and 832.8206 RFU.

same assay, conditions: (calcium)

In the case of `N[C@@H](CC(=O)O)C(=O)O.[Ca]` [Aspartic acid (calcium)], the “Lipase (RFU)” value is reported as 952.0587 RFU and 1027.013 RFU.
